This is an account of results in patent US11753408B2, “Compounds and method for blocking transmission of malarial parasite” (The United States of America, as represented by the …, priority 2016, dated 2023).

Where two headings read alike, the source gives them in different places.

Series [1] has as its system Asexual parasites of P. falciparum strain 3D7. Description: In vitro drug activity on asexual parasites (SYBR Green assay). The format is cell-based, Plasmodium falciparum. The protocol: Cell culture. Asexual parasites of P. falciparum strain 3D7 were cultured as described previously [Trager W, et al., Journal of Parasitology 2005, 91: 484-486], Stage III-V gametocytes were selected and enriched with 3-day treatment with 50 mM N-acetylglucosamine (NAG) and the following Percoll density gradient centrifugation after gametocyte production [Tanaka T Q, et al., Molecular and Biochemical Parasitology, 2011, 111: 160-163], Gametocytes of HB3 and Dd2 strains were produced and then set up for assay in a similar process. HepG2 cells (ATCC, cat. no. 77400) were cultured in 175-cm^2 tissue culture flasks with 30 ml growth medium at 37° C. in a 5% CO2 humidified atmosphere. Growth medium was made with Dulbecco's Modified Eagle Medium with 10% fetal bovine serum (FBS). Growth medium was replaced every other day and cells were passed at 75% confluence.
Asexual parasites of P. falciparum strain 3D7 were cultured as described previously (Trager, W. et al., J. Parasitol. 2005, 91(3): 484-486). Drug activity on asexual stage parasites was tested using a SYBR Green assay as described previously (Eastman, R. T. et al., Antimicrob. Agents Chemother. 2013, 57(1): 425-435; Smilkstein, M. et al., Antimicrob. Agents Chemother. 2004, 48(5): 1803-1806). Briefly, parasites were diluted to 0.5% parasitemia in complete culture medium with 2% hematocrit and drugs diluted in DMSO (≤0.5%) and were loaded into a 96-well plate (200 μl/well). No drug and RBC alone wells were included as positive and background controls, respectively, and each testing condition was examined in duplicated. After 72 h incubation under the standard culture condition and a freeze-thaw lysis step at −80° C. and room temperature, 100 μl/well of lysis buffer containing SYBR Green I was added to the parasite culture and incubated for 30 min at room temperature. The fluorescence of each well was measured at 520 nm following excitation at 490 nm using a FLUOstar Optima™ microplate reader (BMG Labtech).

The target of another series is mTOR (Homo sapiens, UniProt P42345). Description: mTOR activity (no method described). In kind it is biochemical.
Series [2] in a line: Microsomal stability (rat). The format is in vitro ADME. The conditions noted are these: rat microsomes.
The nature of another series: Solubility at pH 7.4. The format is physicochemical.
The next series can be described thus: PAMPA permeability. In kind it is in vitro ADME. (PAMPA measures passive passage across an artificial lipid membrane.)
Setting [3] is: P. falciparum 3D7 asexual parasites, 72 h, SYBR Green.

Regarding `CN(C)CCNC(=O)c1ccc(-n2c(=O)ccc3cnc4ccc(-c5ccc(Cl)cc5)cc4c32)cc1` [Compound 90], it took 74.1 nM to reach a half-maximal effect in series [1] (EC50). This molecule also gave a mTOR at mTOR of 19.84 µM. Moreover, the “Microsomal Stability (rat) T1/2” value in series [2] is recorded as above 30 min. For the same molecule, the “Sol @ pH 7.4” value in the series “Solubility at pH 7.4” was 13.6 ug/mL. This molecule came in with a PAMPA Permeability in “PAMPA permeability” of 802 ×10⁻⁶ cm/s.
For `Cc1cc(C(=O)NCCCN(CCO)CCO)ccc1-n1c(=O)ccc2cnc3ccc(-c4ccc(Cl)cc4)cc3c21` [Compound 281], in that order: 27.4 nM, 2.18 µM, 3 min, above 86 ug/mL and 33.4 ×10⁻⁶ cm/s.
In the same order, the values of `CC(C)(N)c1ccc(-c2ccc3ncc4ccc(=O)n(-c5ccc(C(=O)NC6CC6)cc5)c4c3c2)cc1` [Compound 246] are 1260 nM, 0.6459 µM, above 30 min, above 72 ug/mL and 1.5 ×10⁻⁶ cm/s.
For `O=C(NCCN1CCOCC1)c1ccc(-n2c(=O)ccc3cnc4ccc(-c5ccc(Cl)cc5)cc4c32)cc1` [Compound 215], in that order: 178 nM, 0.7638 µM, 6.3 min, below 1 ug/mL and 492 ×10⁻⁶ cm/s.
With `CCC(=O)NCCNC(=O)c1ccc(-n2c(=O)ccc3cnc4ccc(-c5ccc(Cl)cc5)cc4c32)cc1` [Compound 287], the EC50 – broadly, the concentration giving half of the maximal effect – in series [1] stood at 58.4 nM. Moreover, at mTOR, the mTOR came out at 2.083 µM. Moreover, in series [2], the “Microsomal Stability (rat) T1/2” value is recorded as 4.3 min. Further, the “Sol @ pH 7.4” value in “Solubility at pH 7.4” was below 1 ug/mL. This molecule returned a PAMPA Permeability in the series “PAMPA permeability” of 21.7 ×10⁻⁶ cm/s.
In the same order, the values of `O=C(O)c1cc(Cl)ccc1-c1ccc2ncc3ccc(=O)n(-c4ccc(C(=O)N5CCOCC5)cc4)c3c2c1` [Compound 135] are 77800 nM, “inactive”, above 30.0 min, above 80.0 ug/mL and 3 ×10⁻⁶ cm/s.
For `Cc1cc(C(=O)NCCCN2CCOCC2)ccc1-n1c(=O)ccc2cnc3ccc(-c4ccc(F)cc4)cc3c21` [Compound 297], in that order: 150 nM, 11.02 µM, 1.6 min, 0 ug/mL and 936 ×10⁻⁶ cm/s.
For `Cc1cc(C(=O)NCCCN2CCS(=O)(=O)CC2)ccc1-n1c(=O)ccc2cnc3ccc(-c4ccc(Cl)cc4)cc3c21` [Compound 289], in that order: 86.7 nM, 9.216 µM, 1.7 min, below 1 ug/mL and 141 ×10⁻⁶ cm/s.
For `CNCc1ccc(-c2ccc3ncc4ccc(=O)n(-c5ccc(C(=O)N6CCOCC6)cc5)c4c3c2)cc1` [Compound 198], in series [1], the concentration for a half-maximal effect (EC50) worked out at 264 nM. The mTOR on mTOR is 13.84 µM. For the same molecule, the “Microsomal Stability (rat) T1/2” value in series [2] is listed as above 30 min. Further, the “Sol @ pH 7.4” value in the series “Solubility at pH 7.4” is listed as above 75 ug/mL. Besides, in the series “PAMPA permeability”, the PAMPA Permeability was determined as 6.1 ×10⁻⁶ cm/s.
In the same order, the values of `CN(C)CC#Cc1ccc2ncc3c(c2c1)n(-c1cccc(C#N)c1)c(=O)n3C` [Compound 396] are 144 nM, 15.14 µM, above 30 min, 46.4 ug/mL and 208 ×10⁻⁶ cm/s.
For the molecule `Cc1cc(C(=O)NCCCN2CCC(C)CC2)ccc1-n1c(=O)ccc2cnc3ccc(-c4ccc(Cl)cc4)cc3c21` [Compound 283], the EC50 in series [1] amounted to 69.1 nM. This molecule returned a mTOR on mTOR of 15.09 µM. In addition, the “Microsomal Stability (rat) T1/2” value in series [2] came out at 2.7 min. Besides, the “Sol @ pH 7.4” value in “Solubility at pH 7.4” is recorded as 70.7 ug/mL. The molecule also came in with a PAMPA Permeability in the series “PAMPA permeability” of 1180 ×10⁻⁶ cm/s.
In series [1], `Cc1cc(C(=O)NCCN2CCCCC2)ccc1-n1c(=O)ccc2cnc3ccc(-c4ccc(Cl)cc4)cc3c21` [Compound 291] gave an EC50 of 211 nM. This molecule registered a mTOR at mTOR of 4.975 µM. Also, the “Microsomal Stability (rat) T1/2” value in series [2] stood at 3.1 min. Also, the “Sol @ pH 7.4” value in the series “Solubility at pH 7.4” is given as 0 ug/mL. This molecule also had a PAMPA Permeability in “PAMPA permeability” of 773 ×10⁻⁶ cm/s.
`Cc1cc(C(=O)NC2CC2)ccc1-n1c(=O)ccc2cnc3ccc(-c4ccc(C5(N)CC5)cc4)cc3c21` [Compound 224] yielded an EC50 in series [1] of 46000 nM. This molecule also registered a mTOR at mTOR of 100 µM. Moreover, the “Sol @ pH 7.4” value in the series “Solubility at pH 7.4” is above 74 ug/mL. For the same molecule, in “PAMPA permeability”, the PAMPA Permeability is below 1 ×10⁻⁶ cm/s.
For `COc1cc(C(=O)NC2CC2)ccc1-n1c(=O)ccc2cnc3ccc(-c4ccc(C5(N)CC5)cc4)cc3c21` [Compound 205], in that order: 177 nM, 1.061 µM, 2.2 ug/mL and 456 ×10⁻⁶ cm/s.
With `O=C1NCc2cc(-n3c(=O)ccc4cnc5ccc(-c6ccc(OC7CCNCC7)cc6)cc5c43)ccc21` [Compound 380], in series [1] (setting [3]), the EC50 was 310 nM. Moreover, in series [2], the “Microsomal Stability (rat) T1/2” value is above 30 min. Further, the “Sol @ pH 7.4 (ug/mL)” value in the series “Solubility at pH 7.4” was 2.6 ug/mL. The “PAMPA Permeability (×10^6 cm/s)” value in the series “PAMPA permeability” was <10.7 ×10^6 cm/s.
For `CS(=O)(=O)c1ccc(-n2c(=O)ccc3cnc4ccc(-c5ccc(Cl)cc5)cc4c32)cc1CN1CCNCC1` [Compound 35], in that order: 75.8 nM, above 30 min, 4.3 ug/mL and 35 ×10^6 cm/s.
For `CC(C)(C)c1ccc(-c2ccc3ncc4ccc(=O)n(-c5ccc(C(=O)N6CCOCC6)cc5)c4c3c2)cc1` [Compound 196], the mTOR on mTOR is 100 µM. In addition, in series [2], the “Microsomal Stability (rat) T1/2” value turned out to be 18 min. In addition, the “Sol @ pH 7.4” value in the series “Solubility at pH 7.4” is on record as below 1 ug/mL. This molecule also came in with a PAMPA Permeability in “PAMPA permeability” of 85.9 ×10⁻⁶ cm/s.
Turning to `Cc1cc(C(=O)NC2CC2)ccc1-n1c(=O)ccc2cnc3ccc(-c4ccc(F)cc4)cc3c21` [Compound 223], it took 58 nM to reach a half-maximal effect in series [1] (EC50). The molecule further had a mTOR on mTOR of 7.119 µM. Moreover, in “Solubility at pH 7.4”, the “Sol @ pH 7.4” value came to 3.4 ug/mL. The PAMPA Permeability in the series “PAMPA permeability” was 1180 ×10⁻⁶ cm/s.
As to `Cc1cc(S(C)(=O)=O)ccc1-n1c(=O)ccc2cnc3ccc(-c4ccc(N)nc4)cc3c21` [Compound 70], the EC50 in series [1] (setting [3]) turned out to be 20.1 nM. Also, in series [2], the “Microsomal Stability (rat) T1/2” value is given as 31.3 min. In addition, in the series “Solubility at pH 7.4”, the “Sol @ pH 7.4 (ug/mL)” value is 1.2 ug/mL. In addition, in “PAMPA permeability”, the “PAMPA Permeability (×10^6 cm/s)” value is on record as 148.4 ×10^6 cm/s.
Take `O=C1NC(=O)c2cc(-n3c(=O)ccc4cnc5ccc(-c6ccc(Cl)cc6)cc5c43)ccc21` [Compound 379]: the response in series [1] (setting [3]) was half-maximal at 2960 nM (EC50). Besides, the “Microsomal Stability (rat) T1/2” value in series [2] is reported as 23 min. The “Sol @ pH 7.4 (ug/mL)” value in “Solubility at pH 7.4” was below 1 ug/mL. In addition, the “PAMPA Permeability (×10^6 cm/s)” value in the series “PAMPA permeability” is given as 31 ×10^6 cm/s.
On to `CN(C)CCc1ccc(-c2ccc3ncc4ccc(=O)n(-c5ccc(S(C)(=O)=O)cc5)c4c3c2)cc1` [Compound 68], for which a half-maximal response in series [1] (setting [3]) (EC50) required 131 nM. The “Microsomal Stability (rat) T1/2” value in series [2] was above 30 min. Besides, in the series “Solubility at pH 7.4”, the “Sol @ pH 7.4 (ug/mL)” value stood at 15.7 ug/mL. In “PAMPA permeability”, the “PAMPA Permeability (×10^6 cm/s)” value was 148.7 ×10^6 cm/s.
For `Cc1cc(S(C)(=O)=O)ccc1-n1c(=O)ccc2cnc3ccc(-c4ccc(CN(C)C)cc4)cc3c21` [Compound 69], in that order: 1940 nM, above 30 min, above 73 ug/mL and 828.3 ×10^6 cm/s.
Turning to `CNCc1cc(-n2c(=O)ccc3cnc4ccc(-c5ccc(Cl)cc5)cc4c32)ccc1C(=O)N1CCOCC1` [Compound 200], the EC50 in series [1] is 60 nM. Also, the mTOR on mTOR turned out to be 15.37 µM. Besides, the “Sol @ pH 7.4” value in the series “Solubility at pH 7.4” was 7.2 ug/mL. In “PAMPA permeability”, this molecule returned a PAMPA Permeability of 1070 ×10⁻⁶ cm/s.
As for `CS(=O)(=O)c1ccc(-n2c(=O)ccc3cnc4ccc(-c5ccc(C6(N)CC6)cc5)cc4c32)cc1` [Compound 36], it took 188 nM to reach a half-maximal effect in series [1] (setting [3]) (EC50). The “Microsomal Stability (rat) T1/2” value in series [2] is above 30 min. Further, the “Sol @ pH 7.4 (ug/mL)” value in “Solubility at pH 7.4” is 5.9 ug/mL. Besides, the “PAMPA Permeability (×10^6 cm/s)” value in the series “PAMPA permeability” was 6.5 ×10^6 cm/s.
In the same order, the values of `NCCCN1Cc2cc(-n3c(=O)ccc4cnc5ccc(-c6ccc(Cl)cc6)cc5c43)ccc2C1=O` [Compound 343] are 20.9 nM, above 30 min, 13.4 ug/mL and <2.5 ×10^6 cm/s.
